What was measured:
aquaporin 3 (AQP3) gene = test: aquaporin 3 gene mRNA expression in HaCaT cells (QPCR); type: cell-based, human
Procedure: (§1) The Ceratonia siliqua C obtained in Example 2 was used to examine the effect of the Ceratonia siliqua C on the expression of aquaporin 3 (AQP3) gene and filaggrin 2 (FLG2) gene in a HaCaT cell, a human epidermis-derived keratinocyte cell line.
(§2) First, the HaCaT cells were cultured in a DMEM medium (containing 10% FBS, 100 U/mL penicillin and […] streptomycin) in the presence of 5% CO2 at 37° C. and saturated humidity. Next, the HaCaT cells adjusted to a cell concentration of 5×10^5 cells/mL were seeded in each well of a 6-well cell culture plate and cultured in a CO2 incubator (5% CO2, 37° C.) for 24 hours. Thereafter, the Ceratonia siliqua C isolated in Example 2 was added to each well to provide a final concentration different from each other. Specifically, the final concentrations of Ceratonia siliqua C in the HaCaT cell culture medium were 1 μM, 5 μM, 10 μM, 50 μM and 100 μM, respectively. A well without the Ceratonia siliqua C added was used as a control (0 μM). After addition, they were subjected to culture for 24 hours.
(§3) After completion of the culture, the HaCaT cells were collected from each well, and total RNA was extracted with an RNA extraction reagent (RNAzol®, a product available from Molecular Research Center, Inc.). […]

filaggrin 2 (FLG2) gene = test: filaggrin 2 gene mRNA expression in HaCaT cells (QPCR); type: cell-based, human
Procedure: as §1, §2, §3

[1] = system: IL-6 production in RAW264.7 cells; test: LPS-induced IL-6 production in RAW264.7 cells (ELISA); type: cell-based, mouse; conditions: 1, 5, 10, 50 and 100 μM, added 3 h before LPS 1 μg/mL, supernatant after 24 h, FIG. 11
Procedure: The Ceratonia siliqua C obtained in Example 2 was used to examine the effect of the Ceratonia siliqua C on the production of IL-6 that is an inflammatory cytokine.
In this test, an RAW264.7 cell, a mouse macrophage-derived cell line was used. RAW264.7 cells were cultured in a DMEM medium (containing 10% FBS, 100 U/mL penicillin and […] streptomycin) in the presence of 5% CO2 at 37° C. and saturated humidity.
Each well of a 96-well plate was seeded with 8×10^3 RAW264.7 cells, and the cells were cultured in a CO2 incubator for 24 hours. This was divided into a blank control group, a positive control group and a test group. A 100 μL portion of a DMEM medium was added to each well of the blank control group; a 100 μL portion of a solution of dexamethasone (DXM) dissolved in the DMEM medium was added to each well of the positive control group (a final concentration of dexamethasone: 20 μM); and a 100 μL portion of each of solutions obtained by appropriately diluting the Ceratonia siliqua C with the DMEM medium was added to each well of the test group to provide a different concentration from each other (final concentration: 1 μM, 5 μM, 10 μM, 50 μM and 100 μM). 3 hours later, LPS (1 μg/mL) was added to each well to induce inflammation. 24 hours later, the supernatant was collected and the IL-6 content in the supernatant was measured with an IL-6 quantitative ELISA kit. […]

[2] = 10 μM (highest expression promoting effect), 24 h, relative to control

## COc1ccc(-c2coc3c(OC)c(O)c(O[C@@H]4O[C@H](CO)[C@@H](O)[C@H](O)[C@H]4O)cc3c2=O)cc1 [Ceratonia siliqua C]
Aquaporin 3 (AQP3) gene; [2]
  increase of mRNA expression level of aquaporin 3: 2.5 times
Aquaporin 3 (AQP3) gene; 1-100 μM, 24 h culture, FIG. 12
  mRNA expression level of aquaporin 3 compared to the control: greatly increased the mRNA expression level
Filaggrin 2 (FLG2) gene; [2]
  increase of mRNA expression level of filaggrin 2: 1.35 times
Filaggrin 2 (FLG2) gene; 1-100 μM, 24 h culture, FIG. 13
  mRNA expression level of filaggrin 2 compared to the control: greatly increased the mRNA expression level
[1]
  production of IL-6 by LPS induction: inhibit the production of IL-6 in a concentration-dependent manner

— patent publication US20240254156A1, “NOVEL ISOFLAVONE COMPOUND” (NABOCUL COSMETICS CO., LTD., priority 2021, published 2024)
